9 molecules from BindingDB's records for doi:10.1124/jpet.104.066787 (Georgetown University, 2004) can be followed below.

Where “and” joins values, the source holds several entries; their conditions need not be identical. Equal values may be shown once.

The target of assay [1] is Neuronal acetylcholine receptor subunit alpha-4 (Rattus norvegicus, UniProt P09483).
The target in assay [2] is Neuronal acetylcholine receptor subunit alpha-2 (Rattus norvegicus, UniProt P12389).
Assay [3] has as its target Neuronal acetylcholine receptor subunit alpha-3 (Rattus norvegicus, UniProt P04757).
For assay [4], the target named is Nicotinic acetylcholine receptor (Rattus norvegicus).

Neuronal acetylcholine receptor subunit alpha-2, sequence (P12389 whole entry): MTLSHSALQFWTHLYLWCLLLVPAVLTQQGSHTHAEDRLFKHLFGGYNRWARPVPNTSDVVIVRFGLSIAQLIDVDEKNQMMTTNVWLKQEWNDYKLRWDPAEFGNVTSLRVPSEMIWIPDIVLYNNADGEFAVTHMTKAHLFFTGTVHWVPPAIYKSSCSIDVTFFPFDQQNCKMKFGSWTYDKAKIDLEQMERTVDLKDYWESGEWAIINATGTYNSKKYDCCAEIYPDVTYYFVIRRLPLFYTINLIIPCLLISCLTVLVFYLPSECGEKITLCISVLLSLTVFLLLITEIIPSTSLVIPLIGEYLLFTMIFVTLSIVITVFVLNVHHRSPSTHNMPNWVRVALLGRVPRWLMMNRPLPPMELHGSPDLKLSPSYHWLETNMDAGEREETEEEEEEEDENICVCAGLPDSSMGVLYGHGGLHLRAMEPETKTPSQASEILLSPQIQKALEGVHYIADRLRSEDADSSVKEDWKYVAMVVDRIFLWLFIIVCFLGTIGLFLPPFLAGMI
Neuronal acetylcholine receptor subunit alpha-3, sequence (P04757 whole entry): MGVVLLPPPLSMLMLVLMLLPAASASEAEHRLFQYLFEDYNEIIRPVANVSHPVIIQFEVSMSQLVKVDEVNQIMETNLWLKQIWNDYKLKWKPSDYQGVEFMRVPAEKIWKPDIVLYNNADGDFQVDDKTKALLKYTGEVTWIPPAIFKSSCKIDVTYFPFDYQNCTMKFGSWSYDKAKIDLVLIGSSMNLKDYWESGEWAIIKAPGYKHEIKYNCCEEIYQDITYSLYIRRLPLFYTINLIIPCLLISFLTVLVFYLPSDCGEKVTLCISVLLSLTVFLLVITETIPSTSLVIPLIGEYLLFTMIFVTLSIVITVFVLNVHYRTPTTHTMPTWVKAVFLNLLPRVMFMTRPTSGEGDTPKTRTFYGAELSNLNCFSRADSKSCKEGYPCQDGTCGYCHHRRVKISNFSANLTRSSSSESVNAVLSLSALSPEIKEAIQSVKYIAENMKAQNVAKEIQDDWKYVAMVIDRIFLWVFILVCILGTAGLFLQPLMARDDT
Neuronal acetylcholine receptor subunit alpha-4, sequence (P09483 whole entry): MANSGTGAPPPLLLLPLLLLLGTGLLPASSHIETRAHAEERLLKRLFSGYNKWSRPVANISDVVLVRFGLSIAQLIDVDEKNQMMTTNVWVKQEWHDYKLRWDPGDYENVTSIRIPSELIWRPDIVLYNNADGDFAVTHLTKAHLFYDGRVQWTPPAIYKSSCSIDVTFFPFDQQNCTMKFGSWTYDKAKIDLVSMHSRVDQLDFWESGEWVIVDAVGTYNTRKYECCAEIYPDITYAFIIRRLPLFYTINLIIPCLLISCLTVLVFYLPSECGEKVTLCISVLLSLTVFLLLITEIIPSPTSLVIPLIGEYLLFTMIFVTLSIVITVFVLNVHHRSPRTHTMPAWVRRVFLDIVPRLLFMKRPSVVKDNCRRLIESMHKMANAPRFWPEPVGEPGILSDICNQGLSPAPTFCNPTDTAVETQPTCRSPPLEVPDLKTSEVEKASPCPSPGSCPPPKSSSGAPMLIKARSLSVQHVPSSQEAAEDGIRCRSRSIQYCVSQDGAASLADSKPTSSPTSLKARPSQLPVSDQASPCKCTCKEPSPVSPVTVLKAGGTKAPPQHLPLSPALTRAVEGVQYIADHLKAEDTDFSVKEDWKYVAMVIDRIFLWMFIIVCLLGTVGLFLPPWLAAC

As for `O=c1cccc2n1CC1CNCC2C1` (stereo unspecified) [CAS_485-35-8], the Ki in assay [1] is 1.5 nM and 2.1 nM; in assay [2], 1.1 nM and 5.4 nM; in assay [3], 37 nM and 220 nM.

`C[N+](C)(C)CCO` [2-hydroxy-N,N,N-trimethylethanaminium]: the Ki in assay [1], in assay [2] and in assay [3] was more than 10000 nM each time.

In the case of `c1cncc(OCC2CCN2)c1` (stereo unspecified) [A-85380], affinity in assay [2] was put at a Ki of 18 nM.

Turning to `Ic1ccc(C2CC3CCC2N3)cn1` (stereo unspecified) [IPH], the Ki is 0.15 nM in assay [1]; 0.11 nM and 0.15 nM in assay [2]; 0.18 nM and 0.98 nM in assay [3]; 0.33 nM in assay [4].

Consider `CO[C@H]1CC=C2CCN3CCC4=C(CC(=O)OC4)[C@]23C1`, for which the Ki was 6200 nM and > 10000 nM in assay [2]; 3800 nM and > 10000 nM in assay [3].

On to `CC(=O)OCC[N+](C)(C)C` [2-acetoxyethyl(trimethyl)ammonium;perchlorate], for which the inhibition constant Ki in assay [2] worked out at 11 nM.

On to `CNC1(C)C2CCC(C2)C1(C)C` (stereo unspecified) [Methyl-(2,3,3-trimethyl-bicyclo[2.2.1]hept-2-yl)-amine(Mecamylamine)], for which the Ki in assay [1] and in assay [2] was more than 10000 nM throughout.

As to `CCN1CC2(COC(=O)c3ccccc3-n3c(O)cc(C)c3O)CCC(OC)C34C5CC6C(OC)CC(O)(C5C6OC)C(O)(C(OC)C23)C14` (stereo unspecified) [CAS_21019-30-7], the Ki is > 10000 nM and 6400 nM in assay [1]; more than 10000 nM in assay [2].

As to `C[N+](C)(C)CCOC(N)=O` [(2-Hydroxyethyl)trimethyl ammonium chloride carbamate], the Ki was 590 nM and 1100 nM in assay [1]; 260 nM and 930 nM in assay [2]; 1100 nM and 4700 nM in assay [3].
